Reference: PubChem BioAssay (NCI)
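Assay format: 96-well plates, 48-hour exposure. GI50: concentration for 50% inhibition of growth. TGI denotes the concentration required for complete inhibition of growth.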

Experiments:
Assay in all cases: NCI tumour cell line growth inhibition, 48 h
ACHN renal = tested on: ACHN renal
K-562 leukemia = tested on: K-562 leukemia
MALME-3M melanoma = tested on: MALME-3M melanoma
NCI-H23 lung = tested on: NCI-H23 lung
OVCAR-8 ovarian = tested on: OVCAR-8 ovarian
SK-MEL-5 melanoma = tested on: SK-MEL-5 melanoma
SN12C renal = tested on: SN12C renal
UO-31 renal = tested on: UO-31 renal
BT-549 breast = tested on: BT-549 breast
HT29 colon = tested on: HT29 colon
MDA-MB-231 breast = tested on: MDA-MB-231 breast
SR leukemia = tested on: SR leukemia

| SMILES | TGI (ACHN renal) [µM] | TGI (K-562 leukemia) [µM] | TGI (MALME-3M melanoma) [µM] | TGI (NCI-H23 lung) [µM] | TGI (OVCAR-8 ovarian) [µM] | TGI (SK-MEL-5 melanoma) [µM] | TGI (SN12C renal) [µM] | TGI (UO-31 renal) [µM] | TGI (BT-549 breast) [µM] | TGI (HT29 colon) [µM] | TGI (MDA-MB-231 breast) [µM] | TGI (SR leukemia) [µM] | GI50 (ACHN renal) [µM] | GI50 (BT-549 breast) [µM] | GI50 (HT29 colon) [µM] | GI50 (MDA-MB-231 breast) [µM] | GI50 (NCI-H23 lung) [µM] | GI50 (OVCAR-8 ovarian) [µM] | GI50 (SK-MEL-5 melanoma) [µM] | GI50 (UO-31 renal) [µM] |
| --- | --- | --- | --- | --- | --- | --- | --- | --- | --- | --- | --- | --- | --- | --- | --- | --- | --- | --- | --- | --- |
| Cc1[nH]n(-c2ccccc2)c(=S)c1C(=O)c1ccccc1 | > 100 | > 100 | > 100 | > 100 | > 100 | > 100 | 45.1 | > 100 |  |  |  |  |  |  |  |  |  |  |  |  |
| Nc1nc(Nc2ccc(Cl)cc2)sc1C(=O)c1cc2ccccc2oc1=O | > 100 | > 100 | 76.8 | 89.5 |  | > 100 | > 100 | > 100 | > 100 | > 100 | > 100 |  |  |  |  |  |  |  |  |  |
| COc1cccc(/C=N/n2c(-c3ccccc3)n[nH]c2=O)c1 | > 100 | > 100 | > 100 | 90.5 | 96.9 |  | > 100 | > 100 | 86.1 | > 100 | > 100 |  |  |  |  |  |  |  |  |  |
| Cc1c2n(c3ccccc13)CC1C2N(C)OC1(C)C (configuration not stated) | > 100 | > 100 | > 100 | > 100 | > 100 | > 100 | > 100 | > 100 |  | > 100 |  | > 100 |  |  |  |  |  |  |  |  |
| CCC12C=CCN3CC[C@]4(C(=C(C(=O)OC)[C@@H]1Nc1ccn(C5OC(COC(C)=O)C(OC(C)=O)C5OC(C)=O)c(=O)n1)Nc1ccccc14)C32 (some centres not stated) | 8 | 17.1 | 9.74 | 3.43 | 11 | 8.1 | 8.24 | 7.64 |  | 8.4 |  | 10.2 |  |  |  |  |  |  |  |  |
| CC1=NN(C(=O)c2ccc(Cl)cc2)C(=O)/C1=C/c1cccc(O)c1 | > 100 | > 100 | > 100 | > 100 | > 100 | > 100 | > 100 | > 100 |  | > 100 |  |  |  |  |  |  |  |  |  |  |
| Clc1ccc2c(NCCNc3nc(-c4ccccc4)cc(-c4ccccc4)n3)ccnc2c1 | 3.1 |  |  | 3.8 | 4.3 | 3.2 |  | 3.01 | 3.2 | 3.31 | 3.44 |  | 1.7 | 1.57 | 1.66 | 1.85 | 1.87 | 2.07 | 1.79 | 1.54 |
| OCCOCCO[P+]1(OCCOCCO)n2c3ccc2C(c2ccccc2)=C2C=CC(=N2)C(c2ccccc2)=c2ccc(n21)=C(c1ccccc1)C1=NC(=C3c2ccccc2)C=C1 | 1.05 |  | 0.706 | 0.629 | 2.09 | 0.134 |  |  |  | 0.358 | 0.247 |  |  |  |  |  |  |  |  |  |
| COC(=O)c1ccccc1CC1Cc2cc3c(cc2C1)CCC3 | > 100 | 61.1 | 52 | > 100 | > 100 | 55.3 | > 100 | > 100 |  | > 100 | > 100 | 29.2 |  |  |  |  |  |  |  |  |
| Cc1sc(N=Nc2c(O)[nH]c3ccccc23)nc1-c1ccccc1 | 31.1 |  |  | 34.6 | 40.2 | 33.9 | 34.9 | 29.9 | 41.5 | 54.5 | 33.3 |  |  |  |  |  |  |  |  |  |
| O=C(O)/C(=C\c1ccccc1)Cc1ccccc1 | > 100 | > 100 | > 100 | > 100 | > 100 | > 100 | > 100 | > 100 | > 100 | > 100 | > 100 |  |  |  |  |  |  |  |  |  |
| CCN(CC)CC(C)(C)C(=O)/C=C/c1ccc(C)cc1 | 27.9 | > 100 | 21.7 |  | 31.4 | 29.1 | 19.8 | 22.2 |  | 12.3 |  | 26.8 |  |  |  |  |  |  |  |  |
| CC(=O)CN=C(C)NNc1ccc([N+](=O)[O-])cc1[N+](=O)[O-] | > 100 | > 100 | > 100 | > 100 | > 100 | > 100 | > 100 | > 100 |  | > 100 | > 100 | > 100 |  |  |  |  |  |  |  |  |
| Cc1ccc(N2C(=O)/C(=c3\s/c(=C(/N)O)c(=N)n3-c3ccccc3)SC2=S)cc1 | > 100 | > 100 |  | > 100 | > 100 | > 100 |  | > 100 |  | > 100 |  |  |  |  |  |  |  |  |  |  |
| Cc1cc2c3c(ccc4ncc(c43)CN2c2ccc(NS(C)(=O)=O)cc2)[nH]1 | > 100 | > 100 |  | > 100 | > 100 | > 100 |  | 78.4 | > 100 | > 100 | 68.1 |  |  |  |  |  |  |  |  |  |
| CCC(C)(C)NC1=C(NC(C)=O)C(=O)c2ccccc2C1=O | 43.2 | 53.4 | > 75 | 73.7 | > 75 | 26 | > 75 | > 75 |  | > 75 |  | > 75 |  |  |  |  |  |  |  |  |
| c1ccc2cc3n[se]nc3cc2c1 | > 100 | > 100 | > 100 | > 100 | > 100 | > 100 | > 100 | > 100 |  | > 100 |  |  |  |  |  |  |  |  |  |  |
| Cn1ncc2c(NCCc3ccccc3)nc(Cl)nc21 | > 100 | > 100 | > 100 | > 100 | > 100 | 38.6 | > 100 | 73 | 78.4 | 31 | 39.4 |  |  |  |  |  |  |  |  |  |
| CC(C)CCNC(=O)c1ccc(CNC(=O)/C=C/c2ccc(-c3ccccc3[N+](=O)[O-])o2)cc1 | > 100 | > 100 |  | > 100 | > 100 | > 100 | > 100 | > 100 |  |  | > 100 | > 100 |  |  |  |  |  |  |  |  |
| COc1cc(/C=C2\NC(=O)N(/C=C3\C(=O)Oc4ccccc4C3=O)C2=O)ccc1O | > 100 | > 100 |  | > 100 | > 100 | > 100 | > 100 | > 100 | > 100 | > 100 | > 100 |  |  |  |  |  |  |  |  |  |
| O=[N+]([O-])c1cc(Cl)ccc1S(=O)(=O)c1ccccc1 | > 100 | > 100 | > 100 | > 100 | > 100 | > 100 | > 100 | > 100 | > 100 | > 100 | > 100 |  |  |  |  |  |  |  |  |  |
